Assay results reported in patent US4705805A, “Antithrombotic agent” (priority 1978, dated 1987).
Converted amounts (≈) assume the structure as drawn. Like-named read-outs stand apart in the source and are kept apart here. Each block holds one molecule with its values, some of them ahead of it.

Key:
[1] = system: rabbit blood platelets (platelet rich plasma), ADP-induced aggregation; test: inhibition of platelet aggregation in rabbit platelet rich plasma (in vitro), induced by ADP; type: cell-based; details: Oryctolagus cuniculus, Platelet; for inhibition at 3 µg/mL: 3 μg/ml; for inhibition at 10 µg/mL: 10 μg/ml; for inhibition at 30 µg/mL: 30 μg/ml
Procedure: (§1) In this example, the inhibition of platelet aggregation in rabbit platelet rich plasma (in vitro) is tested.
(§2) In this test, 9 vol. of blood is sampled from the carotid artery of rabbits (2 to 2.5 Kg) and placed in a silicon-coated flask containing 1 vol. of 3.8% sodium citrate. The thus obtained blood is centrifuged at 1,000 rpm for 15 minutes to obtain platelet rich plasma (referred to as "PRP" hereinafter). The aggregation of blood platelets is observed using an aggregometer (made by Bryston Co.) and the degree of aggregation after the addition of aggregation promoting substances is measured by nephelometry, i.e., through increase in light transmission.
(§3) The PRP (0.9 ml) is placed in a silicon-coated cuvett of the aggregometer. Then, 0.05 ml of physiological saline solution containing various concentrations of test reagents or control reagents is added and the mixture is allowed to stand for one minute. Compounds promoting aggregation are then added and the absorbancy of the solution is measured and the percent inhibition of aggregation is calculated according to the following equation: [formula] C: Transmittancy showing the maximum percent aggregation by physiological saline solution
(§4) D: Transmittancy showing the maximum percent aggregation by sample
(§5) Test for the inhibition of platelet aggregation induced by ADP, collagen and thrombin.

[2] = system: human platelet rich plasma, collagen-induced aggregation; test: inhibition of platelet aggregation in human platelet rich plasma, induced by collagen; type: cell-based; details: read-out: percentage inhibition, collagen; for inhibition at 10 µg/mL: 10 μg/ml
Procedure: as §2, §3, §4
(§6) In this example, the same procedures are repeated as in Example 10 except that human platelet rich plasma is used in place of rabbit platelet rich plasma.

[3] = system: human platelet rich plasma, ADP-induced aggregation; test: inhibition of platelet aggregation in human platelet rich plasma, induced by ADP; type: cell-based; details: read-out: percentage inhibition, ADP; for inhibition at 10 µg/mL: 10 μg/ml
Procedure: as §2, §3, §4, §6

[4] = system: mice (male dd-strain), death by sodium arachidonate; test: prevention of death of mice by sodium arachidonate; type: in vivo; details: sodium arachidonate 50 mg/Kg i.v. two hours thereafter
Procedure: When a large amount of arachidonic acid is intravenously administrated to a mouse, blood platelet aggregates are formed and caught by the microvasculature system of the lung. As a result, the mouse expires due to dyspnea.
To examine the effect of a medicine in vivo, the medicine is orally administered to test animals and thereafter arachidonic acid is administered.
In this example, the test was carried out according to the method by Uzunova A. D. et al. [Prostaglandins 13, p. 995 (1977)] Specifically, a CMC suspension consisting of 0.3% CMC solution and a medicine (test compound and reference medicine) was orally administered to mice (male dd-strain, 22-24 g). Two hours thereafter, 50 mg/Kg of sodium arachidonate was intravenously administered to the mice.

[5] = system: rabbit blood platelets (platelet rich plasma), collagen-induced aggregation; test: inhibition of platelet aggregation in rabbit platelet rich plasma (in vitro), induced by collagen; type: cell-based; details: Oryctolagus cuniculus, Platelet; for inhibition at 3 µg/mL: 3 μg/ml; for inhibition at 10 µg/mL: 10 μg/ml
Procedure: as §1, §2, §3, §4, §5

[6] = system: rabbit blood platelets (platelet rich plasma), thrombin-induced aggregation; test: inhibition of platelet aggregation in rabbit platelet rich plasma (in vitro), induced by thrombin; type: cell-based; details: Oryctolagus cuniculus, read-out: percentage of inhibition, thrombin; for inhibition at 3 µg/mL: 3 μg/ml; for inhibition at 10 µg/mL: 10 μg/ml
Procedure: as §1
as §2, with “The” for “In this test, 9 vol. of blood is sampled from the carotid artery of rabbits (2 to 2.5 Kg) and placed in a silicon-coated flask containing 1 vol. of 3.8% sodium citrate. The”
as §3, §4, §5

[7] = acute toxicity, Behrens-Karber's method; type: in vivo; details: in vivo; mouse, oral
Procedure: (§7) In this example, the acute toxicity of compounds of the invention is determined by Behrens-Karber's method using, 5 male dd-strain for each group weighing 20±1 g. A 0.3% CMC suspension of the test compound (concentration of the test compound: 100 mg/ml) is then orally administered to each mouse.

mouse (male dd-strain) = test: acute toxicity, Behrens-Karber's method; type: in vivo; details: oral
Procedure: as §7

[8] = system: mice, death by ADP injection; test: prevention of death of mice by ADP addition (in vivo), intravenous administration; details: 10 mg/Kg, ADP-Na ten minutes thereafter
Procedure: (§8) In this example, prevention of death of mice by ADP addition (in vivo) is tested. It is shown that intravenous administration of a great amount of ADP to mice causes aggregated blood platelets to be captured in the pulmonary capillaries so that the mice die of respiratory distress.
In order to check the effect by intravenous administration, physiological saline solution and physiological saline solution containing the test reagents (0.5 mg/ml) is injected into the tail vein in a volume of 0.2 ml/10 g (body weight). Ten minutes thereafter (10 mg/kg) ADP-Na is injected into the tail vein as in the oral test, and the mortality is calculated.

[9] = system: mice, death by ADP injection; test: prevention of death of mice by ADP addition (in vivo), oral administration; details: for Mortality / Score (mortality): oral, 100 mg/Kg, ADP i.v. after one hour
Procedure: as §8
The test is carried out according to Roba's method. [Eur. J. Pharmacol. 37, 265-274 (1976)]. Specifically, CMC solution (0.3%) and CMC suspension containing the test compound and control compounds are orally administered to mice in a ratio of 0.1 ml/10 g (body weight). After one hour, an aqueous solution of ADP (60 mg/ml) is injected into the tail vein in a volume of 0.1 ml/10 g (body weight) every 10 seconds and the mortality is calculated.

solubility = type: physicochemical; details: for Solubility in ether, benzene, chloroform: chloroform, and the like
[10] = rabbit PRP, ADP 10^-5 M, read-out: percentage of inhibition, ADP
[11] = rabbit PRP, read-out: percentage of inhibition, collagen
[12] = rabbit PRP, 30 μg/ml, read-out: percentage of inhibition, collagen
[13] = read-out: percentage of inhibition, collagen

SMILES: CC(O)CNC(=O)c1ccccc1SSc1ccccc1C(=O)NCC(C)O (stereo not drawn) [Compound V, 2,2'-dithiobis(N-2-hydroxypropylbenzamide)]
IC50 ([1]; rabbit PRP, ADP 10^-5 M): 7.4 mg/L (≈ 17.6 µM)
inhibition at 1 µg/mL ([1]; rabbit PRP, ADP 10^-5 M, 1 μg/ml, read-out: percentage of inhibition, ADP): 12.5%
inhibition at 3 µg/mL [1, 10]: 25.5%
inhibition at 10 µg/mL [1, 10]: 54%
inhibition at 30 µg/mL [1, 10]: 90%
inhibition at 3 µg/mL ([2]; human PRP, 3 μg/ml): 13%
inhibition at 10 µg/mL ([2]; human PRP): 39%
inhibition at 30 µg/mL ([2]; human PRP, 30 μg/ml): 100%
inhibition at 3 µg/mL ([3]; human PRP, 3 μg/ml): 47%
inhibition at 10 µg/mL ([3]; human PRP): 61%
inhibition at 30 µg/mL ([3]; human PRP, 30 μg/ml): 81%
Mortality ([4]; oral 25 mg/Kg): 40%
Score (mortality) ([4]; oral 25 mg/Kg): 8/20
Mortality ([4]; oral 50 mg/Kg): 20%
Score (mortality) ([4]; oral 50 mg/Kg): 4/20
Mortality ([4]; oral 100 mg/Kg): 20%
Score (mortality) ([4]; oral 100 mg/Kg): 4/20
inhibition at 1 µg/mL ([5]; rabbit PRP, 1 μg/ml, read-out: percentage of inhibition, collagen): 25.7%
inhibition at 3 µg/mL [5, 11]: 83.5%
inhibition at 10 µg/mL [5, 11]: 100%
inhibition at 1 µg/mL ([6]; rabbit PRP, 1 μg/ml): 10%
inhibition at 3 µg/mL ([6]; rabbit PRP): 57%
inhibition at 10 µg/mL ([6]; rabbit PRP): 89.6%
inhibition at 30 µg/mL ([6]; rabbit PRP, 30 μg/ml): 95%
LD50 [7]: ≥ 3000 mg/kg
mortality rate (mouse (male dd-strain); 2 g/Kg): 0/5
mortality rate (mouse (male dd-strain); 3 g/Kg): 2/5
mortality rate (mouse (male dd-strain); 4 g/Kg): 4/5

SMILES: O=C(c1ccccc1SSc1ccccc1C(=O)N1CCN(Cc2ccccc2)CC1)N1CCN(Cc2ccccc2)CC1 [Compound IV, 2,2'-dithiobis(N'-benzylbenzpiperazide)]
IC50 ([1]; rabbit PRP, ADP 10^-5 M): 9.8 mg/L (≈ 15.7 µM)
inhibition at 3 µg/mL [1, 10]: 28%
inhibition at 10 µg/mL [1, 10]: 44.7%
inhibition at 30 µg/mL [1, 10]: 83.3%
inhibition at 30 µg/mL ([2]; human PRP, 30 μg/ml): 12%
inhibition at 100 µg/mL ([2]; human PRP, 100 μg/ml): 75%
inhibition at 30 µg/mL ([3]; human PRP, 30 μg/ml): 0%
inhibition at 100 µg/mL ([3]; human PRP, 100 μg/ml): 58%
Mortality [8]: 50%
Score (mortality) [8]: 5/10
IC50 ([5]; rabbit PRP): 9.8 mg/L (≈ 15.7 µM)
inhibition at 3 µg/mL [5, 11]: 7.6%
inhibition at 10 µg/mL [5, 11]: 46.5%
inhibition at 30 µg/mL [5, 12]: 100%
inhibition at 3 µg/mL ([6]; rabbit PRP): 31%
inhibition at 10 µg/mL ([6]; rabbit PRP): 58%
inhibition at 30 µg/mL ([6]; rabbit PRP, 30 μg/ml): 84%
Mortality [9]: 30%
Score (mortality) [9]: 3/10
LD50 [7]: ≥ 4000 mg/kg
Solubility in ether, benzene, chloroform (solubility): Insoluble
Solubility in methanol, ethanol (solubility; methanol, ethanol, and the like): slightly soluble
Solubility in water (solubility; water, etc.): Readily soluble

SMILES: CC(=O)Oc1ccccc1C(=O)O [Aspirin, reference compound]
inhibition at 300 µg/mL ([1]; read-out: percentage of inhibition, ADP): 0%
inhibition at 30 µg/mL ([2]; Homo sapiens): 48%
inhibition at 100 µg/mL ([2]; Homo sapiens): 86%
inhibition at 30 µg/mL ([3]; Homo sapiens): 7%
inhibition at 100 µg/mL ([3]; Homo sapiens): 20%
Mortality [8]: 70%
Score (mortality) [8]: 7/10
Mortality ([4]; oral 12.5 mg/Kg): 50%
Score (mortality) ([4]; oral 12.5 mg/Kg): 5/10
Mortality ([4]; oral 25 mg/Kg): 10%
Score (mortality) ([4]; oral 25 mg/Kg): 1/10
inhibition at 30 µg/mL [5, 13]: 20%
inhibition at 100 µg/mL [5, 13]: 34%
inhibition at 300 µg/mL [5, 13]: 48%
inhibition at 30 µg/mL [6]: 21%
inhibition at 100 µg/mL [6]: 65%
effect in reducing mortality (ADP) ([9]; in words, oral or intravenous administration, Table 3): ineffective
Mortality [9]: 80%
Score (mortality) [9]: 8/10

Solubility in DMSO, DMF (solubility; DMSO, DMF, etc.): Soluble
Solubility in ethanol, water (solubility; ethanol, water, and the like): poorly soluble
Solubility in ether, benzene, chloroform (solubility): Insoluble
SMILES: O=C(NCO)c1ccccc1SSc1ccccc1C(=O)NCO [Compound XV, 2,2'-dithiobis(N-hydroxymethylbenzamide)]
inhibition at 10 µg/mL [1, 10]: 0%
inhibition at 30 µg/mL [1, 10]: 46%
inhibition at 10 µg/mL ([2]; human PRP): 29%
inhibition at 30 µg/mL ([2]; human PRP, 30 μg/ml): 68%
inhibition at 100 µg/mL ([2]; human PRP, 100 μg/ml): 100%
inhibition at 10 µg/mL ([3]; human PRP): 5%
inhibition at 30 µg/mL ([3]; human PRP, 30 μg/ml): 45%
inhibition at 100 µg/mL ([3]; human PRP, 100 μg/ml): 90%
inhibition at 3 µg/mL [5, 11]: 22%
inhibition at 10 µg/mL [5, 11]: 56%
inhibition at 30 µg/mL [5, 12]: 100%
